In PubChem BioAssay AID248 (DTP/NCI, 2004):
Inconclusive results and toxic doses are left out. Rule as the data show it: active = T/C of 150% or more; inactive = T/C below 125%.

Test system: L1210 leukemia ip in BDF1 mice, survival T/C
Assay: NCI In Vivo Anticancer Drug Screen. Data for tumor model L1210 Leukemia (intraperitoneal) in B6D2F1 (BDF1) mice
Details: endpoint: mean survival time, higher = longer survival
How it was run: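 Tumor was transplanted into mice, which were then dosed with test compound or vehicle alone. Survival was recorded for each group, and the treated figure was expressed relative to the control figure.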

[1] = dose: 100.0 mg/kg/injection, schedule: Q04DX002 (ip), vehicle: Klucel (hydroxypropylcellulose) (HPC)
[2] = dose: 200.0 mg/kg/injection, schedule: Q04DX002 (ip), vehicle: Klucel (hydroxypropylcellulose) (HPC)
[3] = dose: 400.0 mg/kg/injection, schedule: Q04DX002 (ip), vehicle: Klucel (hydroxypropylcellulose) (HPC)
[4] = dose: 50.0 mg/kg/injection, schedule: Q01DX009 (ip), vehicle: saline
[5] = dose: 100.0 mg/kg/injection, schedule: Q01DX009 (ip), vehicle: saline
[6] = dose: 100.0 mg/kg/injection, schedule: Q04DX003 (ip), vehicle: saline with Tween-80
[7] = dose: 200.0 mg/kg/injection, schedule: Q04DX003 (ip), vehicle: saline with Tween-80
[8] = dose: 400.0 mg/kg/injection, schedule: Q04DX003 (ip), vehicle: saline with Tween-80
[9] = dose: 100.0 mg/kg/injection, schedule: Q01DX001 (ip), vehicle: saline
[10] = dose: 200.0 mg/kg/injection, schedule: Q01DX001 (ip), vehicle: saline

Measured: T/C

COc1cc2c(c(OC)c1OC)-c1ccc(OC)c(=O)cc1[C@@H](NC(=O)c1ccccc1)CC2
inactive: dose: 0.13 mg/kg/injection, schedule: Q01DX Z (ip), vehicle: methylcellulose (MC) 87 % of control | dose: 0.2 mg/kg/injection, schedule: Q01DX Z (ip), vehicle: methylcellulose (MC) 120 % of control | dose: 0.29 mg/kg/injection, schedule: Q01DX Z (ip), vehicle: methylcellulose (MC) 122 % of control | dose: 0.44 mg/kg/injection, schedule: Q01DX Z (ip), vehicle: methylcellulose (MC) 95 % of control | dose: 0.75 mg/kg/injection, schedule: Q01DX Z (ip), vehicle: methylcellulose (MC) 101 % of control | dose: 0.8 mg/kg/injection, schedule: Q01DX Z (ip), vehicle: methylcellulose (MC) 103 % of control | dose: 1.2 mg/kg/injection, schedule: Q01DX Z (ip), vehicle: methylcellulose (MC) 106 % of control | dose: 1.6 mg/kg/injection, schedule: Q01DX015 (ip), vehicle: carboxymethylcellulose (CMC) 108 % of control | dose: 1.8 mg/kg/injection, schedule: Q01DX Z (ip), vehicle: methylcellulose (MC) 103 % of control | dose: 2.5 mg/kg/injection, schedule: Q01DX015 (ip), vehicle: carboxymethylcellulose (CMC) 108 % of control | dose: 2.7 mg/kg/injection, schedule: Q01DX Z (ip), vehicle: methylcellulose (MC) 105 % of control | dose: 3.7 mg/kg/injection, schedule: Q01DX015 (ip), vehicle: carboxymethylcellulose (CMC) 123 % of control | dose: 4.0 mg/kg/injection, schedule: Q01DX Z (ip), vehicle: methylcellulose (MC) 114 % of control | dose: 5.0 mg/kg/injection, schedule: Q01DX001 (ip), vehicle: carboxymethylcellulose (CMC) 104 % of control | dose: 5.6 mg/kg/injection, schedule: Q01DX015 (ip), vehicle: carboxymethylcellulose (CMC) 108 % of control | dose: 8.4 mg/kg/injection, schedule: Q01DX015 (ip), vehicle: carboxymethylcellulose (CMC) 86 % of control | dose: 10.0 mg/kg/injection, schedule: Q01DX001 (ip), vehicle: carboxymethylcellulose (CMC) 120 % of control | dose: 20.0 mg/kg/injection, schedule: Q01DX001 (ip), vehicle: carboxymethylcellulose (CMC) 118 % of control | dose: 27.0 mg/kg/injection, schedule: Q01DX001 (ip), vehicle: carboxymethylcellulose (CMC) 120 % of control

OCCN(CCO)c1cc(OCc2ccccc2)cc(OCc2ccccc2)c1
inactive: dose: 25.0 mg/kg/injection, schedule: Q01DX009 (ip), vehicle: water 94 % of control | dose: 50.0 mg/kg/injection, schedule: Q01DX009 (ip), vehicle: water 97 % of control | dose: 100.0 mg/kg/injection, schedule: Q01DX009 (ip), vehicle: water 101 % of control | dose: 200.0 mg/kg/injection, schedule: Q01DX009 (ip), vehicle: water 86 % of control | dose: 400.0 mg/kg/injection, schedule: Q01DX009 (ip), vehicle: water 95 % of control

Cc1ccc(Nc2cc(=O)[nH]c(N)n2)cc1C
inactive: dose: 100.0 mg/kg/injection, schedule: Q01DX Z (ip), vehicle: methylcellulose (MC) 95 % of control | dose: 200.0 mg/kg/injection, schedule: Q01DX Z (ip), vehicle: methylcellulose (MC) 95 % of control

CNC(=O)OCC1=CC(=O)C=C(OC)C1=O
inactive: dose: 6.25 mg/kg/injection, schedule: Q01DX009 (ip), vehicle: gum acacia 90 % of control | dose: 12.5 mg/kg/injection, schedule: Q04DX003 (ip), vehicle: gum acacia 94 % of control | dose: 25.0 mg/kg/injection, schedule: Q04DX003 (ip), vehicle: gum acacia 101 % of control

ClC12c3ccccc3C(c3ccccc31)C1(Cl)c3ccccc3C2c2ccccc21
inactive: [1] 102 % of control | [2] 109 % of control | [3] 106 % of control

O=S(=O)(CCl)Nc1ccncc1
inactive: dose: 100.0 mg/kg/injection, schedule: Q04DX013 (ip), vehicle: carboxymethylcellulose (CMC) 101 % of control | dose: 200.0 mg/kg/injection, schedule: Q04DX013 (ip), vehicle: carboxymethylcellulose (CMC) 100 % of control | dose: 400.0 mg/kg/injection, schedule: Q04DX013 (ip), vehicle: carboxymethylcellulose (CMC) 100 % of control

COc1cc(N2CCOCC2)ccc1[N+](=O)[O-]
inactive: [4] 105 % of control | [5] 103 % of control | dose: 100.0 mg/kg/injection, schedule: Q04DX003 (ip), vehicle: saline 102 % of control | dose: 200.0 mg/kg/injection, schedule: Q01DX009 (ip), vehicle: saline 105 % of control | dose: 200.0 mg/kg/injection, schedule: Q04DX003 (ip), vehicle: saline 103 % of control

CC1=CC(=O)NP(=O)(Oc2ccc3ccccc3c2)N1 (stereo not given)
inactive: dose: 50.0 mg/kg/injection, schedule: Q01DX005 (ip), vehicle: other 95 % of control | dose: 100.0 mg/kg/injection, schedule: Q01DX005 (ip), vehicle: other 96 % of control | dose: 200.0 mg/kg/injection, schedule: Q01DX005 (ip), vehicle: other 95 % of control | dose: 400.0 mg/kg/injection, schedule: Q01DX005 (ip), vehicle: other 92 % of control

CC12CCC(=O)C=C1CCC1C2C(=O)CC2(C)C1CCC2(O)C(=O)COC(=O)c1cc([N+](=O)[O-])cc([N+](=O)[O-])c1N1CC1 (stereo not given)
inactive: dose: 60.0 mg/kg/injection, schedule: Q01DX015 (ip), vehicle: saline 94 % of control | dose: 90.0 mg/kg/injection, schedule: Q01DX015 (ip), vehicle: saline 96 % of control | dose: 135.0 mg/kg/injection, schedule: Q01DX015 (ip), vehicle: saline 92 % of control | dose: 200.0 mg/kg/injection, schedule: Q01DX015 (ip), vehicle: saline 100 % of control

O=C1C2CCCC1C(c1ccccc1)C=C2c1ccc(O)cc1 (stereo not given)
inactive: [6] 97 % of control | [7] 96 % of control | [8] 94 % of control

C/C(N=Nc1ccccc1[N+](=O)[O-])=N\Nc1ccccc1
inactive: dose: 50.0 mg/kg/injection, schedule: Q01DX009 (ip), vehicle: Klucel (hydroxypropylcellulose) (HPC) 95 % of control | dose: 100.0 mg/kg/injection, schedule: Q01DX009 (ip), vehicle: Klucel (hydroxypropylcellulose) (HPC) 97 % of control | dose: 200.0 mg/kg/injection, schedule: Q01DX009 (ip), vehicle: Klucel (hydroxypropylcellulose) (HPC) 95 % of control | dose: 400.0 mg/kg/injection, schedule: Q01DX009 (ip), vehicle: Klucel (hydroxypropylcellulose) (HPC) 95 % of control

Cc1nnc2[nH]c(=O)[nH]c(=O)c2n1
inactive: dose: 50.0 mg/kg/injection, schedule: Q01DX001 (ip), vehicle: saline 98 % of control | [9] 104 % of control | [10] 101 % of control | dose: 400.0 mg/kg/injection, schedule: Q01DX001 (ip), vehicle: saline 98 % of control

CC1CN(CCCCO)C(=O)NC1=O (stereo not given)
inactive: [9] 90 % of control | [10] 88 % of control

Cc1cc(=O)[nH]c(N2CCOCC2)n1
inactive: [9] 106 % of control | [10] 101 % of control

COc1cc(N=Nc2ccccc2C(=O)O)ccc1O
inactive: dose: 100.0 mg/kg/injection, schedule: Q01DX009 (ip), vehicle: saline with Tween-80 96 % of control | [6] 96 % of control | dose: 200.0 mg/kg/injection, schedule: Q01DX009 (ip), vehicle: saline with Tween-80 104 % of control | [7] 101 % of control | [8] 101 % of control

O=C1OC(=O)C2(Br)C3C=CC(CC3)C12Br (stereo not given)
inactive: [6] 93 % of control | [7] 96 % of control | [8] 98 % of control

COC(=O)C(=O)CC(=O)c1cccc([N+](=O)[O-])c1
inactive: [1] 103 % of control | [2] 95 % of control | [3] 95 % of control

O=C1c2ccccc2C(=O)N1CNc1ccccn1
inactive: dose: 100.0 mg/kg/injection, schedule: Q04DX002 (ip), vehicle: saline with Tween-80 96 % of control | dose: 200.0 mg/kg/injection, schedule: Q04DX002 (ip), vehicle: saline with Tween-80 93 % of control | dose: 400.0 mg/kg/injection, schedule: Q04DX002 (ip), vehicle: saline with Tween-80 100 % of control

O=C(O)COCc1ccccc1
inactive: dose: 100.0 mg/kg/injection, schedule: Q04DX003 (ip), vehicle: saline sonified 97 % of control | dose: 200.0 mg/kg/injection, schedule: Q04DX003 (ip), vehicle: saline sonified 92 % of control | dose: 400.0 mg/kg/injection, schedule: Q04DX003 (ip), vehicle: saline sonified 92 % of control

Cn1c(CC(O)(C(F)(F)F)C(F)(F)F)cc2ccccc21
inactive: dose: 100.0 mg/kg/injection, schedule: Q01DX009 (ip), vehicle: other 95 % of control | dose: 200.0 mg/kg/injection, schedule: Q01DX009 (ip), vehicle: other 95 % of control | dose: 400.0 mg/kg/injection, schedule: Q01DX009 (ip), vehicle: other 93 % of control

CC(O)C(C)Cl (stereo not given)
inactive: [4] 100 % of control | [5] 103 % of control
